For this assay, the system named is THP-1 Lucia ISG cells. Briefly: ISG-LUC activation assay (ISRE-luciferase assay). The conditions noted are these: Homo sapiens, THP1-Lucia ISG, activity score based upon potency and efficacy data, 24 hours. The format is cell-based. The text has this: We have established a robust platform for identifying non-nucleotide small molecule STING agonists. This has been established using a primary assay involving a human THP-1 cell line carrying an IRF-inducible reporter with 5 copies of the IFN signaling response element. Counter screens, involving alternative reporter constructs, rodent cell-based assays, as well as cGAS and STING knock-out cell lines, are used to eliminate luciferase artifacts and ensure human-rodent cross species reactivity, as well as pathway selectivity. Biochemical assays, involving cGAS enzymatic activity and STING protein binding assays, are used to identify the specific target of identified hits.
Tissue culture. Wild-type (cat. no. thpl-isg) and STING KO (cat. no. thpd-kostg) THP-1-Lucia ISG cells were purchased from Invivogen and maintained in growth media consisting of RPMI 1640, 2 mM L-glutamine, 25 mM HEPES, 10% heat-inactivated fetal bovine serum (FBS), 1,000 units/ml penicillin, 1,000 μg/ml streptomycin, 0.25 μg/ml Amphotericin B, and 100 μg/ml zeocin unless otherwise stated.
ISRE-luciferase assay. THP-1 Lucia ISG cells were resuspended in low-serum growth media (2% FBS) at a density of 5×10^5 cells/ml and treated with test article or vehicle (DMSO). 50 μL of cells were seeded into each well of a 384-well white greiner plates and incubated for 24 hours. To evaluate expression of the luciferase reporter, 30 μl of Quanti-luc (Invivogen) detection reagent was added to each well and luminescence was read using an Envision plate reader (Perkin Elmer) set with an integration time of 0.1 seconds.

Each structure is given as a SMILES string. Where only a bound is given, the exact number is not on record here.

Consider `C#Cc1cc(NC(=O)c2ccc(-c3ccncc3)nn2)c(C(=O)O)cc1F` [Compound 1, lithium 4-ethynyl-5-fluoro-2-(6-(pyridin-4-yl)pyridazine-3-carboxamido) benzoate], for which the EC50 is less than 900 nM. For the compound `COC(=O)c1cc(F)c(F)cc1NC(=O)c1nnc(-n2ccnc2)cc1CN` [Compound 2, methyl 2-(4-(aminomethyl)-6-(1H-imidazol-1-yl)pyridazine-3-carboxamido)-4,5-difluorobenzoate], the EC50 was greater than 1000 nM.

Consider `C#Cc1cc2nc(-c3ccc(-c4ccncc4)nn3)oc(=O)c2cc1F` [Compound 3, 7-ethynyl-6-fluoro-2-(6-(pyridin-4-yl)pyridazin-3-yl)-4H-benzo[d][1,3]oxazin-4-one], for which the EC50 was less than 900 nM. With `COC(=O)c1cc(F)c(F)cc1NC(=O)c1ccc(-n2ccnc2CO)nn1` [Compound 4] the figure was less than 3000 nM; with `COC(=O)c1cc(F)c(F)cc1NC(=O)c1ccc(C#N)nn1` [Compound 5], greater than 1000 nM; with `CS(=O)(=O)NCCNc1cc(C(=O)Nc2cc(F)c(F)cc2C(=O)O)nnc1-n1ccnc1` [Compound 6], greater than 1000 nM. In the case of `COC(=O)c1cc(F)c(F)cc1NC(=O)c1nnc(-n2ccnc2)cc1CO` [Compound 7] it was less than 900 nM; in that of `COC(=O)c1cc(F)c(F)cc1NC(=O)c1ccc(N)nn1` [Compound 8], greater than 1000 nM. In the case of `COC(=O)c1cc(F)c(F)cc1NC(=O)c1ccc(CC#N)nn1` [Compound 9] it was greater than 1000 nM. In the case of `COC(=O)c1cc(F)c(F)cc1NC(=O)c1ccc(-c2cccnc2)nn1` [Compound 10], the EC50 was greater than 1000 nM. With `CCOC(=O)Nc1ccc(C(=O)Nc2cc(F)c(F)cc2C(=O)O)nn1` [Compound 11] the figure was greater than 1000 nM. In the case of `COC(=O)c1cc(Cl)c(OC)cc1NC(=O)c1cc(N)ncn1` [Compound 12] it was greater than 1000 nM; in that of `NC(=O)c1ccc(C(=O)Nc2cc(F)c(F)cc2C(=O)O)cn1` [Compound 13], greater than 20000 nM. With `Nc1n[nH]cc1-c1ccc(C(=O)Nc2cc(F)c(F)cc2C(=O)O)nn1` [Compound 14] the figure was greater than 1000 nM.

`COC(=O)c1cc(F)c(F)cc1NC(=O)c1ccc(-c2c[nH]nn2)nn1` [Compound 15] displayed an EC50 of less than 900 nM. With `COC(=O)c1cc(F)c(F)cc1NC(=O)c1cc(C(N)=O)cnn1` [Compound 16] the figure was greater than 1000 nM. `COC(=O)c1cc(F)c(F)cc1NC(=O)c1ccc(CO)nn1` [Compound 17]: the EC50 is less than 3000 nM. In the case of `COC(=O)c1cc(Cl)c(Cl)cc1NC(=O)c1ccc(N)nn1` [Compound 18] it was greater than 1000 nM; in that of `COc1cncc(-c2ccc(C(=O)Nc3cc(F)c(F)cc3C(=O)O)nn2)c1` [Compound 19], greater than 1000 nM; in that of `COC(=O)c1cc(F)c(F)cc1NC(=O)c1cc(N)cnn1` [Compound 20], less than 900 nM. In the case of `O=C(Nc1cc(F)c(F)cc1C(=O)O)c1ccc(-c2cccnc2)nn1` [Compound 21] it was greater than 1000 nM. Turning to `COC(=O)c1cc(Cl)c(Cl)cc1NC(=O)c1cn(-c2cnn(C(=O)OC(C)(C)C)c2)nn1` [Compound 22], the EC50 is greater than 1000 nM. In the case of `COC(=O)c1cc(Cl)c(Cl)cc1NC(=O)c1cn(-c2cn[nH]c2)nn1` [Compound 23] it was less than 900 nM; in that of `COC(=O)c1cc(Cl)c(Cl)cc1NC(=O)c1nnc(-n2ccnc2)cc1CN` [Compound 24], less than 900 nM. In the case of `COC(=O)c1cc(Cl)c(Cl)cc1NC(=O)c1ccc(-n2ccnc2)cn1` [Compound 25] it was greater than 1000 nM; in that of `COC(=O)c1cc(Cl)c(Cl)cc1NC(=O)c1cc(CN)c(-n2ccnc2)nn1` [Compound 26], less than 900 nM; in that of `COC(=O)c1cc(C#N)c(Cl)cc1NC(=O)c1ccc(-c2c(Br)cnn2C)nn1` [Compound 27], greater than 20000 nM. As for `N#Cc1n[nH]cc1-c1ccc(C(=O)Nc2cc(Cl)c(F)cc2C(=O)O)nn1` [Compound 28], the EC50 was greater than 1000 nM. In the case of `O=C(Nc1cc(Cl)c(F)cc1C(=O)O)c1ccc(-c2cnsc2)nn1` [Compound 29] it was less than 900 nM; in that of `COC(=O)c1cc(C#N)c(Cl)cc1NC(=O)c1ccc(-c2c[nH]nn2)nn1` [Compound 30], less than 900 nM.

Compound `O=C(Nc1cc(Cl)c(F)cc1C(=O)O)c1ccc(-c2ccns2)nn1` [Compound 31] returned an EC50 of less than 900 nM. With `Cn1cc(C#N)c(-c2ccc(C(=O)Nc3cc(Cl)c(Cl)cc3C(=O)O)nn2)n1` [Compound 32] the figure was greater than 20000 nM; with `O=C(Nc1cc(Cl)c(Cl)nc1C(=O)O)c1ccc(-c2cc[nH]n2)nn1` [Compound 33], greater than 1000 nM; with `COC(=O)c1nc(Cl)c(Cl)cc1NC(=O)c1ccc(-c2cc[nH]n2)nn1` [Compound 34], less than 900 nM.

`C#Cc1cc(NC(=O)c2cn(-c3cn[nH]c3)nn2)c(C(=O)OC)cc1F` [Compound 35] showed an EC50 of less than 900 nM. In the case of `C#Cc1cc(NC(=O)c2cn(-c3cn[nH]c3)nn2)c(C(=O)O)cc1F` [Compound 36] it was greater than 1000 nM; in that of `COC(=O)c1cc(Cl)c(Cl)cc1NC(=O)c1nc(-c2cn[nH]c2)no1` [Compound 37], less than 3000 nM; in that of `C#Cc1cc(NC(=O)c2ccc(-c3cn[nH]c3)nn2)c(C(=O)O)nc1Cl` [Compound 38], less than 900 nM. With `COC(=O)c1sc(C)cc1NC(=O)c1ccc(-n2ccnc2)nn1` [Compound 39] the figure was greater than 1000 nM; with `COC(=O)c1cc(F)c(F)cc1NC(=O)c1ccc(-c2ccnc(N)c2)nn1` [Compound 40], less than 900 nM; with `COC(=O)c1cc(F)c(F)cc1NC(=O)c1cc(N)c(-n2ccnc2)nn1` [Compound 41], less than 900 nM. `COC(=O)c1cc(F)c(F)cc1NC(=O)c1cc(C)c(-n2ccnc2)nn1` [Compound 42] returned an EC50 greater than 1000 nM. In the case of `COC(=O)c1cc(F)c(F)cc1NC(=O)c1nnc(-n2ccnc2)cc1C` [Compound 43] it was greater than 1000 nM. With `C=Cc1cc(NC(=O)c2ccc(-c3cn[nH]c3)nn2)c(C(=O)O)cc1F` [Compound 44] the figure was less than 900 nM. In the case of `COC(=O)c1cc(Cl)c(F)cc1NC(=O)c1ccncn1` [Compound 45] it was greater than 1000 nM; in that of `C#Cc1cc(NC(=O)c2ccc(-c3cn[nH]c3)nn2)c(C(=O)O)cc1F` [Compound 46], greater than 1000 nM.

For `COC(=O)NCc1cc(C(=O)Nc2cc(Cl)c(Cl)cc2C(=O)OC)nnc1-n1ccnc1` [Compound 47], the EC50 was greater than 1000 nM.

`COC(=O)c1cc(Cl)c(Cl)cc1NC(=O)c1cc(CNC(N)=O)c(-n2ccnc2)nn1` [Compound 48]: the EC50 is greater than 1000 nM. In the case of `O=C(Nc1cc(Cl)c(Cl)cc1C(=O)O)c1ccc(-c2cn[nH]c2)nn1` [Compound 49] it was greater than 1000 nM. Regarding `COC(=O)c1cc(Cl)c(Cl)cc1NC(=O)c1ccc(-c2c[nH]nn2)nn1` [Compound 50], the EC50 is less than 900 nM. With `O=C(Nc1cc(Cl)c(Cl)cc1C(=O)O)c1ccc(-c2c[nH]nn2)nn1` [Compound 51] the figure was greater than 1000 nM. In the case of `O=C(Nc1cc(Cl)c(Cl)nc1C(=O)O)c1ccc(-c2cn[nH]c2)nn1` [Compound 52] it was less than 900 nM.

The compound `C#Cc1cc(NC(=O)c2ccc(-c3cn[nH]c3)nn2)c(C(=O)O)cc1Cl` [Compound 53] registered an EC50 greater than 1000 nM. With `C#Cc1cc(NC(=O)c2cnc(-c3cn[nH]c3)cn2)c(C(=O)OC)cc1F` [Compound 55] the figure was greater than 20000 nM; with `C#Cc1cc(NC(=O)c2ncc(-c3cn[nH]c3)cn2)c(C(=O)OC)cc1F` [Compound 56], greater than 20000 nM; with `COC(=O)c1cc(Cl)c(F)cc1NC(=O)c1ccc(-c2cn[nH]c2)nn1` [Compound 57], less than 900 nM. In the case of `COC(=O)c1cc(F)c(F)cc1NC(=O)c1ccc(-c2cn[nH]c2)nn1` [Compound 58] it was less than 900 nM; in that of `COC(=O)c1cc(F)c(F)cc1NC(=O)c1cc(NCc2ccc(OC)cc2)cnn1` [Compound 59], less than 900 nM; in that of `COC(=O)c1cc(F)c(F)cc1NC(=O)c1ccc(-c2ccncc2)nn1` [Compound 60], less than 900 nM.

For `COC(=O)NCCNc1cc(C(=O)Nc2cc(F)c(F)cc2C(=O)OCc2ccc(OC)cc2)nnc1-n1ccnc1` [Compound 61], the EC50 is greater than 1000 nM. In the case of `O=C(Nc1cc(F)c(F)cc1C(=O)O)c1ccc(-c2cn[nH]c2)nn1` [Compound 63] it was greater than 1000 nM. In the case of `O=C(Nc1cc(Cl)c(Cl)cc1C(=O)O)c1cn(-c2cn[nH]c2)nn1` [Compound 64] it was greater than 1000 nM; in that of `COC(=O)c1cc(F)c(F)cc1NC(=O)c1cc(CN)c(-n2ccnc2)nn1` [Compound 65], greater than 1000 nM; in that of `O=C(Nc1cc(F)c(Cl)cc1C(=O)O)c1ccc(-c2cn[nH]c2)nn1` [Compound 66], greater than 1000 nM. Compound `O=C(Nc1cc(Cl)c(F)cc1C(=O)O)c1ccc(-c2cn[nH]c2)nn1` [Compound 67] returned an EC50 greater than 1000 nM. The compound `COC(=O)c1cc(C#N)c(Cl)cc1NC(=O)c1ccc(-c2cn[nH]c2)nn1` [Compound 68] registered an EC50 of less than 900 nM.

As to `COC(=O)c1cc(F)c(Cl)cc1NC(=O)c1ccc(-c2cn[nH]c2)nn1` [Compound 69], the EC50 was less than 900 nM.

For orientation: EC50 means the concentration giving half of the maximal effect.

Values taken from patent US20220288065A1, “MONOCYCLIC AGONISTS OF STIMULATOR OF INTERFERON GENES STING” (The Scripps Research Institute, priority 2019, published 2022).
